PubChem BioAssay (NCI)
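Assay format: 96-well plates, 48-hour exposure. GI50: concentration for 50% inhibition of growth. TGI: concentration producing complete growth inhibition.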

Key:
Test in all cases: NCI tumour cell line growth inhibition, 48 h
DMS 273 small cell lung = tested on: DMS 273 small cell lung
HCT-15 colon = tested on: HCT-15 colon
HOP-18 NSCLC = tested on: HOP-18 NSCLC
LXFL 529 NSCLC = tested on: LXFL 529 NSCLC
M14 melanoma = tested on: M14 melanoma
NCI-H23 lung = tested on: NCI-H23 lung
RXF 393 renal = tested on: RXF 393 renal
SK-MEL-28 melanoma = tested on: SK-MEL-28 melanoma
BT-549 breast = tested on: BT-549 breast
HL-60(TB) leukemia = tested on: HL-60(TB) leukemia
UACC-257 melanoma = tested on: UACC-257 melanoma
786-0 renal = tested on: 786-0 renal

Structure (SMILES)	TGI (DMS 273 small cell lung)	TGI (HCT-15 colon)	TGI (HOP-18 NSCLC)	TGI (LXFL 529 NSCLC)	TGI (M14 melanoma)	TGI (NCI-H23 lung)	TGI (RXF 393 renal)	TGI (SK-MEL-28 melanoma)	TGI (BT-549 breast)	TGI (HL-60(TB) leukemia)	TGI (UACC-257 melanoma)	TGI (786-0 renal)	GI50 (BT-549 breast)	GI50 (HL-60(TB) leukemia)	GI50 (NCI-H23 lung)	GI50 (RXF 393 renal)	GI50 (UACC-257 melanoma)	GI50 (HCT-15 colon)	GI50 (M14 melanoma)	GI50 (SK-MEL-28 melanoma)
OC1CCSc2ccccc21 (stereo unspecified)	> 100 µM	> 100 µM	> 100 µM	> 100 µM	> 100 µM	> 100 µM	> 100 µM	> 100 µM	–	–	–	–	–	–	–	–	–	–	–	–
CC(C)C(=O)CC(c1ccc(Br)cc1)N1N=C(C(C)C)CC1c1ccc(Br)cc1 (stereo unspecified)	> 100 µM	> 100 µM	> 100 µM	> 100 µM	> 100 µM	> 100 µM	> 100 µM	> 100 µM	–	–	–	–	–	–	–	–	–	–	–	–
Oc1ccc(Cl)cc1C1=Nn2c(COc3ccc4c(c3)CCCC4)nnc2SC1	–	36.7 µM	–	–	29.5 µM	26.9 µM	32.9 µM	14.4 µM	34.6 µM	38.2 µM	35.6 µM	–	–	–	–	–	–	–	–	–
CN(C)c1ccc(/C=C2\C[C@H]3[C@@H]4CC=C5C[C@@H](O)CC[C@]5(C)[C@H]4CC[C@]3(C)[C@H]2O)cc1	–	39.7 µM	–	–	41.3 µM	35.6 µM	68 µM	44.9 µM	43.3 µM	> 100 µM	35.7 µM	42 µM	–	–	–	–	–	–	–	–
COc1cc(S(=O)(=O)Nc2ccc(-c3csc(/N=C\c4cccc(Oc5ccccc5)c4)n3)cc2)ccc1Cl	–	> 100 µM	–	–	> 100 µM	> 100 µM	49.4 µM	> 100 µM	93.1 µM	57.6 µM	–	> 100 µM	–	–	–	–	–	–	–	–
CS(=O)(=O)Nc1cccc(-c2ccc3ncnc(Nc4cncc(Cl)c4)c3c2)c1	–	–	–	–	–	16.9 µM	4.41 µM	–	7.39 µM	9.2 µM	4.82 µM	–	2.34 µM	2.66 µM	2.51 µM	1.43 µM	2.08 µM	–	–	–
Nc1csc(-c2scc3c2OCCO3)c1N	–	35.1 µM	–	–	35.2 µM	35.6 µM	56.1 µM	49.5 µM	50.2 µM	50.8 µM	54.2 µM	33.3 µM	–	–	–	–	–	–	–	–
CC(CCCCNC(=O)OC(C)(C)C)NC(=O)NC(C)CCCCNC(=O)OC(C)(C)C (stereo unspecified)	–	> 100 µM	–	–	> 100 µM	> 100 µM	> 100 µM	> 100 µM	> 100 µM	> 100 µM	> 100 µM	> 100 µM	–	–	–	–	–	–	–	–
Cc1cc(=O)[nH]c(S(=O)(=O)NC(=O)Nc2cccc(Cl)c2)n1	–	> 100 µM	–	–	> 100 µM	> 100 µM	> 100 µM	> 100 µM	> 100 µM	> 31.2 µM	> 100 µM	> 100 µM	–	–	–	–	–	–	–	–
CN(CCN1C(=O)c2cccc3cccc(c23)C1=O)CCN1C(=O)c2cccc3cccc(c23)C1=O	–	> 100 µM	–	–	> 100 µM	43.7 µM	76.9 µM	> 100 µM	> 100 µM	> 100 µM	> 100 µM	27.5 µM	–	–	–	–	–	–	–	–
CC12OC(C(=O)C13CCC3)C1C(=O)c3c(O)ccc(O)c3C(=O)C12 (stereo unspecified)	–	3.4 µM	–	–	2.04 µM	2.15 µM	3.3 µM	6.35 µM	16.4 µM	2.39 µM	7.81 µM	–	5.97 µM	0.569 µM	0.577 µM	1.41 µM	1.53 µM	0.952 µM	0.669 µM	2.49 µM
CC(C)(C)COS(=O)OCC(C)(C)C	–	> 100 µM	–	–	> 100 µM	> 100 µM	> 100 µM	> 100 µM	> 100 µM	> 100 µM	> 100 µM	> 100 µM	–	–	–	–	–	–	–	–
O=C1/C(=C/c2ccc([N+](=O)[O-])cc2)Sc2scc(-c3cccc([N+](=O)[O-])c3)[n+]21	–	5.75 µM	–	–	17.5 µM	42 µM	7.94 µM	–	18.7 µM	1.07 µM	18.4 µM	4.96 µM	–	–	–	–	–	–	–	–
CN(CCc1ccccn1)c1ccc2c(c1)Cc1ccccc1-2	–	> 100 µM	–	–	94.3 µM	> 100 µM	> 100 µM	> 100 µM	46.8 µM	59.3 µM	92.2 µM	> 100 µM	–	–	–	–	–	–	–	–
Fc1c(F)c(F)c(CSc2nc3ccccc3[nH]2)c(F)c1F	–	> 100 µM	–	–	> 100 µM	> 100 µM	> 100 µM	> 100 µM	> 100 µM	> 100 µM	> 100 µM	–	–	–	–	–	–	–	–	–
C#C[C@]1(O)[C@@H](CO)O[C@@H](n2ccc(=O)[nH]c2=O)[C@@H]1O	–	–	–	–	6.77 µM	7.37 µM	–	31.3 µM	–	> 100 µM	> 84.5 µM	–	–	–	–	–	–	–	–	–
C/C=C/C(O)P(=O)(OC)OC (stereo unspecified)	–	1.06 µM	–	–	0.463 µM	1.2 µM	0.543 µM	1.36 µM	1.8 µM	0.591 µM	0.792 µM	0.36 µM	–	–	–	–	–	–	–	–
